Earlier results, collected in patent US8637551B2, “2-(1,2-benzisoxazol-3-yl)benzylamine derivatives” (Merck Sharp & Dohme B.V., priority 2009, dated 2014).

Assays:
[1] = tested on: A-beta and A-delta fibres; conditions: Lee et al 2005
[2] = tested on: rat (Chung) model of neuropathic pain; conditions: for anti-allodynic effects in the Chung model: clinically used reference drugs
[3] = tested on: rat, mild thermal injury model
[4] = tested on: Brennan model; conditions: local administration to the sciatic nerve 4 h after surgery; Dalle & Eisenach 2005
[5] = tested on: nerve injured myelinated DRG; conditions: Yagi et al, 2000
[6] = tested on: rat CFA model of inflammatory pain

CCN(c1ccccc1)c1cc(=NC)n(C)c(C)n1.Cl [ZD 7288]
firing frequency of ectopic discharges [1]: reduced the firing frequency of ectopic discharges | reversal of mechanical allodynia ([2]; intraperitoneal, Chung/von Frey, Chaplan et al 2003): dose-dependently reverses mechanical allodynia | spontaneous pain [3]: blocks spontaneous pain | mechanical allodynia [4]: attenuates mechanical allodynia | spontaneous activity [5]: reduces spontaneous activity | allodynia [6]: suppresses allodynia

CNCC[C@H](Oc1cccc2ccccc12)c1cccs1 [duloxetine]
anti-allodynic effects in the Chung model [2]: anti-allodynic effects

NCC1(CC(=O)O)CCCCC1 [gabapentin]
anti-allodynic effects in the Chung model [2]: anti-allodynic effects

CN1CC[C@]23c4c5ccc(O)c4O[C@H]2[C@@H](O)C=C[C@H]3[C@H]1C5 [morphine]
anti-allodynic effects in the Chung model [2]: anti-allodynic effects
